In patent US10294248B2, “Beta-lactamase inhibitors” (VenatoRx Pharmaceuticals, Inc., priority 2013, dated 2019):
pIC50: −log10 of the molar value.

Legend:
[1] = target: T1, OXA-1 β-lactamase (Class D oxacillinase) (Escherichia coli, UniProt P13661); experiment: β-Lactamase inhibition, OXA-1; assay type: biochemical; conditions: nitrocefin 100 μM, 486 nm; 15 min preincubation at 37° C., PBS pH 7.4
T1 construct: made in house; host or cells: E. coli BL21(DE3)
Method: (§1) For SHV-5, Kpc-2, p99AmpC and OXA-1 β-lactamases, E. coli BL21(DE3) bacterial cells carrying expression plasmids (expressed as native untagged proteins) for the individual β-lactamases were grown in 1 L of Superbroth (Teknova Inc. Hollister, Calif.) supplemented with 100 μg/ml kanamycin selection and 1×5052 (0.5% glycerol, 0.05% glucose and 0.2% α-lactose) at 35° C. for 18-20 hours. Cells were harvested by centrifugation (4,000×g, 4° C., 20 min), resuspended in 50 ml of 10 mM HEPES pH 7.5 ( 1/20 of the initial volume). The cells were lysed by sonication (5 pulses of 45 seconds) at 45 W on ice. The lysates were clarified by centrifugation at 10,000×g for 40 minutes at 4° C. Samples were diluted 5-fold in 50 mM sodium acetate pH 5.0, stored overnight at 4° C., after which they were centrifuged at 10,000×g for 30 minutes to clarify, and filtered through 0.45 μm filters. The samples were loaded onto a 5 ml Capto S sepharose cation exchange column (GE Healthcare) pre-equilibrated with 50 mM sodium acetate pH 5.0. The column was washed with 5 column volumes of 50 mM sodium acetate pH 5.0 to wash out unbound protein and a linear gradient of NaCl (0 to 500 mM) was used to elute the protein (over 16 CV) from the column. Fractions were assayed for β-lactamase activity using Centa (Calbiochem, Gibbstown, N.J.) or Nitrocefin (EMD Millipore chemicals, Darmstadt, Germany) as a reporter β-lactamase substrate for activity in the isolated fractions. Active fractions were pooled, concentrated and further purified by gel filtration chromatography on a Superdex 75 prep grade gel filtration column (GE Healthcare, Piscataway, N.J.) pre-equilibrated in 50 mM Hepes pH 7.5, 150 mM NaCl. Active fractions were pooled concentrated, quantitated by BCA protein determination (Thermo Scientific, Rockford, Ill.), dialyzed into PBS and frozen at −80° C. in 20% glycerol until use.
(§2) An equal volume of diluted enzyme stock was added, and the plates were incubated at 37° C. for 15 min. Nitrocefin was used as substrate for p99 AmpC, VIM-2 and OXA-1 and dispensed into each well at a final concentration of 100 μM. Absorbance at 486 nm was immediately monitored for 10 min using a Biotek Powerwave XS2 microplate spectrophotometer using the GEN5 software package (Biotek Instruments, Winooski Vt.). In an analogous fashion, imipenem was used as substrate for Kpc-2 and Cefotaxime was used for SHV-5, while changes in absorbance upon hydrolysis of the β-lactam ring were monitored at 300 nm and 260 nm respectively in UV-transparent 96-well microtiter assay plates. Maximum rates of hydrolysis were compared to those in control wells (without inhibitors), and percentages of enzyme inhibition were calculated for each concentration of inhibitor. The concentration of inhibitor needed to reduce the initial rate of hydrolysis of substrate by 50% (IC50) was calculated as the residual activity of β-lactamase at 486 nm using GraFit version 7 kinetics software package (Erithacus Software, Surrey, UK).
(§3) Using the methodology described above, examples of the current invention were evaluated for their ability to inhibit β-lactamase enzymes from all four Ambler classifications (A through D). […] NT=Not tested.

[2] = target: T2, VIM-2 metallo-β-lactamase (Class B) (Pseudomonas aeruginosa, UniProt Q9K2N0); experiment: β-Lactamase inhibition, VIM-2; assay type: biochemical; conditions: nitrocefin 100 μM, 486 nm; 15 min preincubation at 37° C., PBS pH 7.4
T2 construct: made in house; host or cells: E. coli BL21(DE3)
Method: For Vim-2 metallo β-lactamase, the procedure was identical with the following exceptions, first the protein was not pH adjusted to pH 5 with 50 mM sodium acetate, second, the chromatography step was changed to a 5 ml Q sepharose anion exchange column pre-equilibrated with 50 mM Hepes pH 7.5, and elution of the protein was achieved by a linear gradient of NaCl (0-600 mM). Finally, the VIM-2 purification required a second run (3rd step) on the Q sepharose anion exchange column to achieve acceptable purity (>90%).
as §2, §3

[3] = target: T3, p99 AmpC β-lactamase (Class C) (Enterobacter cloacae, UniProt P05364); experiment: β-Lactamase inhibition, p99 AmpC; assay type: biochemical
T3 construct: made in house; host or cells: E. coli BL21(DE3)
Method: as §1, §2, §3

[4] = target: T4, SHV-5 β-lactamase (Class A ESBL) (Klebsiella pneumoniae, UniProt P0A3M1); experiment: β-Lactamase inhibition, SHV-5; assay type: biochemical
T4 construct: made in house; host or cells: E. coli BL21(DE3)
Method: as §1, §2, §3

[5] = tested on: P. aeruginosa Ps296 expressing VIM-2; experiment: Broth microdilution MIC, P. aeruginosa Ps296 VIM-2; assay type: cell-based; conditions: fixed 4 μg/mL meropenem; CAMHB, 16-20 hours at 37° C.
Excerpt: (§4) To determine the ability of test compounds to potentiate the inhibition of the growth of bacterial strains that produce beta-lactamase enzymes, classic cell based broth microdilution MIC assays were employed. Six bacteria strains producing beta-lactamase enzymes were used: E. coli expressing the Class A Extended Spectrum Beta-Lactamase (ESBL) CTX-M-15, E. cloacae expressing the Class C P99, K. pneumoniae expressing the Class A carbapenemase KPC-3, P. aeruginosa expressing the Class B carbapenemase VIM-2, K. pneumoniae expressing the class A carbapenemase KPC-2 and the class B carbapenemase VIM-4, and S. aureus producing the Class A penicillinase PC-1. The assay was conducted in Cation Adjusted Mueller Hinton Broth (CAMHB, BD #212322, BD Diagnostic Systems, Sparks, Md.). Bacteria strains were grown for 3-5 hours in CAMBH broth. Test compounds (Examples 1-30) were added to a microtiter plate in 2-fold serial dilutions in CAMHB in a final concentration range of 32 μg/mL to 0.25 μg/ml. An overlay of CAMHB containing a Beta-lactam was added to the compounds at a final static concentration of 4 μg/ml. […] In addition to the titration of test compounds the MICs of a panel of control beta-lactams is also tested to ensure the strains are behaving consistently from test to test. Once the test compound and antibiotics are added the plates can be inoculated according to CLSI broth microdilution method. After inoculation the plates are incubated for 16-20 hours at 37° C. then the Minimal Inhibitory Concentration (MIC) of the test compound is determined visually.
(§5) Using the methodology described above, examples of the current invention were evaluated for their ability to inhibit the growth of β-lactamase-producing bacteria in the presence of a β-lactam antibiotic.
(§6) Using the methodology described above in EXAMPLE III, exemplary compounds for Formula I or Formula Ia were evaluated for their ability to inhibit the growth of β-lactamase producing bacteria in the presence of a β-lactam antibiotic.

[6] = tested on: E. coli ESBL4 expressing CTX-M-15; experiment: Broth microdilution MIC, E. coli ESBL4 CTX-M-15; assay type: cell-based; conditions: fixed 4 μg/mL ceftazidime; CAMHB, 16-20 hours at 37° C.
Excerpt: as §4, §5, §6

[7] = tested on: K. pneumoniae A-1797 expressing KPC-2 and VIM-4; experiment: Broth microdilution MIC, K. pneumoniae A-1797 KPC-2/VIM-4; assay type: cell-based; conditions: fixed 4 μg/mL meropenem; CAMHB, 16-20 hours at 37° C.
Excerpt: as §4, §5, §6

[8] = tested on: S. aureus MSSA-7 producing penicillinase PC-1; experiment: Broth microdilution MIC, S. aureus MSSA-7 PC-1; assay type: cell-based; conditions: fixed 4 μg/mL piperacillin; CAMHB, 16-20 hours at 37° C.
Excerpt: as §4, §5, §6

[9] = tested on: K. pneumoniae 156319 expressing KPC-3; experiment: Broth microdilution MIC, K. pneumoniae 156319 KPC-3; assay type: cell-based; conditions: fixed 4 μg/mL meropenem; CAMHB, 16-20 hours at 37° C.
Excerpt: as §4, §5, §6

[10] = target: T5, KPC-2 β-lactamase (Class A carbapenemase) (Klebsiella pneumoniae, UniProt Q9F663); experiment: β-Lactamase inhibition, KPC-2; assay type: biochemical; conditions: imipenem substrate, 300 nm; 15 min preincubation at 37° C., PBS pH 7.4
T5 construct: made in house; host or cells: E. coli BL21(DE3)
Method: as §1, §2, §3

[11] = tested on: E. cloacae 144200 expressing Class C P99 AmpC; experiment: Broth microdilution MIC, E. cloacae 144200 p99 AmpC; assay type: cell-based; conditions: fixed 4 μg/mL ceftazidime; CAMHB, 16-20 hours at 37° C.
Excerpt: as §4, §5, §6

T3 sequence (P05364 21-381): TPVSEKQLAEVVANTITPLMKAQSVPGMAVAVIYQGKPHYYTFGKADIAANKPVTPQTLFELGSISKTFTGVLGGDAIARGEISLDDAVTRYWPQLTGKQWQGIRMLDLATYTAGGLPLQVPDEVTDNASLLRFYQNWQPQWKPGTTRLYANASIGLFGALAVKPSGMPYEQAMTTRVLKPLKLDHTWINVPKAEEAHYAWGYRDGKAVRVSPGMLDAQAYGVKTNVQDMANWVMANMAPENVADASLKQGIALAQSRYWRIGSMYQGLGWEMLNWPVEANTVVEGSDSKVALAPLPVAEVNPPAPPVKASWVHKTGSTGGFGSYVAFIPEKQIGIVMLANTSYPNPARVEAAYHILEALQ
T1 sequence (P13661 26-276): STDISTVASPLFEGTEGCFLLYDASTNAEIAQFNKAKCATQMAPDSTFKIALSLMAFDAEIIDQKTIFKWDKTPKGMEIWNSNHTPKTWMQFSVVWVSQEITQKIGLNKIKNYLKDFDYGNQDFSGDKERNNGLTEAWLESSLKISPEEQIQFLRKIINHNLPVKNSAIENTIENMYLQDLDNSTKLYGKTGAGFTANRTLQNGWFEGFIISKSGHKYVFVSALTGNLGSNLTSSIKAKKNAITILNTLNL
T4 sequence (P0A3M1 22-286): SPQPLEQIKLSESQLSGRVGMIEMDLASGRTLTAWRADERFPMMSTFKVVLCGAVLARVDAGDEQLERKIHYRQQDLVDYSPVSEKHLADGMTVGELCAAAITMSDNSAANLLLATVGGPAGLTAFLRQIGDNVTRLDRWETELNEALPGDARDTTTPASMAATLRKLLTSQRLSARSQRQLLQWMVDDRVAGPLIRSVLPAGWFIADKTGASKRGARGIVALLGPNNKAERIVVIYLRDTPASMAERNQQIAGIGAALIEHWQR
T5 sequence (Q9F663 25-293, looked up): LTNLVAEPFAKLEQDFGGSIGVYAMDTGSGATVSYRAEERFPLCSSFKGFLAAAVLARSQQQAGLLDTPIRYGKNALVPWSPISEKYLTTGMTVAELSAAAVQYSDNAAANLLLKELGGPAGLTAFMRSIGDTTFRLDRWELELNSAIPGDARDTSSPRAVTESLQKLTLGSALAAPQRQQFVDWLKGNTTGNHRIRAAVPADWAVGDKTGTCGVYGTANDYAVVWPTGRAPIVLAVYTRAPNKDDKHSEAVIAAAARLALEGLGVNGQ

Row | SMILES | pIC50 [1] | pIC50 [2] | pIC50 [3] | pIC50 [4] | MIC of example compound in presence of fixed β-lactam: Fixed Mero, P. aerug. Ps296 VIM-2 [5] | MIC of example compound in presence of fixed β-lactam: Fixed CAZ, E. coli ESBL4 CTX-M-15 [6] | MIC of example compound in presence of fixed β-lactam: Fixed Mero, K. P. A-1797 KPC-2 VIM-4 [7] | MIC of example compound in presence of fixed β-lactam: Fixed Pip, S. aureus MSSA-7 PC-1 [8] | MIC of example compound in presence of fixed β-lactam: Fixed Mero, K. P. 156319 KPC-3 [9] | pIC50 [10] | MIC of example compound in presence of fixed β-lactam: Fixed CAZ, E. cl. 144200 p99 AmpC [11]
1 | O=C(CN1CCN(c2ccccn2)CC1)N[C@H]1Cc2cccc(C(=O)O)c2OB1O [Example 2, 2-Hydroxy-3-[2-(4-pyridin-2-yl-piperazin-1-yl)-acetylamino]-3,4-dihydro-2H-benzo[e][1,2]oxaborinine-8-carboxylic acid] | 6.00 to 7.00 | 5.00 to 6.00 | > 7.00 | > 7.00 | A (an MIC of the fixed β-lactam antibiotic in the presence of >32 μg/mL of a β-lactamase inhibitor) | C (the MIC in the presence of <4 μg/mL of a β-lactamase inhibitor) | A (an MIC of the fixed β-lactam antibiotic in the presence of >32 μg/mL of a β-lactamase inhibitor) | C (the MIC in the presence of <4 μg/mL of a β-lactamase inhibitor) | B (the MIC in the presence of between 8 and 32 μg/mL of a β-lactamase inhibitor) | 6.00 to 7.00 | C (the MIC in the presence of <4 μg/mL of a β-lactamase inhibitor)
2 | CN(C)CCN1CCN(CC(=O)N[C@H]2Cc3cccc(C(=O)O)c3OB2O)CC1 [Example 3, 3-{2-[4-(2-Dimethylamino-ethyl)-piperazin-1-yl]-acetylamino}-2-hydroxy-3,4-dihydro-2H-benzo[e][1,2]oxaborinine-8-carboxylic acid] | 6.00 to 7.00 | 5.00 to 6.00 | > 7.00 | > 7.00 | C (the MIC in the presence of <4 μg/mL of a β-lactamase inhibitor) | C (the MIC in the presence of <4 μg/mL of a β-lactamase inhibitor) | B (the MIC in the presence of between 8 and 32 μg/mL of a β-lactamase inhibitor) | C (the MIC in the presence of <4 μg/mL of a β-lactamase inhibitor) | C (the MIC in the presence of <4 μg/mL of a β-lactamase inhibitor) | > 7.00 | C (the MIC in the presence of <4 μg/mL of a β-lactamase inhibitor)
3 | O=C(CN1CCNCC1)N[C@H]1Cc2cccc(C(=O)O)c2OB1O [Example 4, 2-Hydroxy-3-(2-piperazin-1-yl-acetylamino)-3,4-dihydro-2H-benzo[e][1,2]oxaborinine-8-carboxylic acid] | 6.00 to 7.00 | 5.00 to 6.00 | > 7.00 | > 7.00 | B (the MIC in the presence of between 8 and 32 μg/mL of a β-lactamase inhibitor) | C (the MIC in the presence of <4 μg/mL of a β-lactamase inhibitor) | B (the MIC in the presence of between 8 and 32 μg/mL of a β-lactamase inhibitor) | C (the MIC in the presence of <4 μg/mL of a β-lactamase inhibitor) | C (the MIC in the presence of <4 μg/mL of a β-lactamase inhibitor) | > 7.00 | C (the MIC in the presence of <4 μg/mL of a β-lactamase inhibitor)
4 | NCC1CCN(CC(=O)N[C@H]2Cc3cccc(C(=O)O)c3OB2O)CC1 [Example 5, 3-[2-(4-Aminomethyl-piperidin-1-yl)-acetylamino]-2-hydroxy-3,4-dihydro-2H-benzo[e][1,2]oxaborinine-8-carboxylic acid] | > 7.00 | 6.00 to 7.00 | > 7.00 | 5.00 to 6.00 | B (the MIC in the presence of between 8 and 32 μg/mL of a β-lactamase inhibitor) | C (the MIC in the presence of <4 μg/mL of a β-lactamase inhibitor) | C (the MIC in the presence of <4 μg/mL of a β-lactamase inhibitor) | B (the MIC in the presence of between 8 and 32 μg/mL of a β-lactamase inhibitor) | C (the MIC in the presence of <4 μg/mL of a β-lactamase inhibitor) | > 7.00 | C (the MIC in the presence of <4 μg/mL of a β-lactamase inhibitor)
